Laboratory results from the supplement of paper PMC3974653.
Structures can show the parent of a compound that is named as a salt.

Tested on: MTT (mouse pheochromocytoma)
Test: IC50 of cell viability (ATP content)
Conditions: (24 or 48 h)
Outline: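 Cells of the MTT mouse pheochromocytoma line, 5 µl per well at 200,000 cells/ml, were grown overnight at 37°C, 5% CO2 in white 1536-well plates with DMEM, 5% FBS and 1% horse serum. Pintool transfer then delivered 23 nl of library compound in DMSO, giving 8 final concentrations from 0.5 nM to 46 µM, for an exposure of 24 or 48 hrs. Luminescence from CellTiter-Glo was read after 15 minutes and referenced to positive-control wells (100%) and DMSO wells (0%). IC50 was calculated with a four-parameter logistic fit.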

Row | SMILES | IC50 of cell viability
1 | CCCC(C)(COC(N)=O)COC(N)=O [Meprobamate] | > 46 µM
2 | CC[C@]1(c2cccc(O)c2)CCCCN(C)C1 [Meptazinol hydrochloride] | > 46 µM
3 | c1ccc2c(c1)Sc1ccccc1N2CC1CN2CCC1CC2 (configuration not stated) [Mequitazine] | > 46 µM
4 | O.O.O.[Na+].[Na+].O[Hg]C1=C2OC/3=C/C(=O)/C(=C\C3=C(\C2=CC(=C1[O-])Br)C4=C(C=CC=C4)C([O-])=O)Br [Merbromin] | > 46 µM
5 | COc1cc(CCN)cc(OC)c1OC [Mescaline] | > 46 µM
6 | C[S+](=O)([O-])c1ccc(C(=O)C2C(=O)CCCC2=O)c([N+](=O)[O-])c1 [Mesotrione] | > 46 µM
7 | CC12CCC(=O)CC1CCC1C2CCC2(C)C1CCC2(C)O (configuration not stated) [Mestanolone] | > 46 µM
8 | C[C@]12C=CC(=O)C=C1CC[C@@H]1[C@@H]2CC[C@@]2(C)[C@H]1CC[C@]2(C)O [Metandienona] | > 46 µM
9 | C[C@H](N)[C@H](O)c1cccc(O)c1.O=C(O)[C@@H](O)[C@@H](O)C(=O)O.O=C(O)[C@@H](O)[C@@H](O)C(=O)O [Metaraminol bitartrate] | > 46 µM
10 | CN(C)[C@H]\1[C@@H]2[C@@H](O)[C@@H]\3C(=C)C4=C(C(=CC=C4)O)C(=O)C3=C(\O)[C@@]2(O)C(=O)\C(=C1O)C(N)=O [Methacycline hydrochloride] | > 46 µM
11 | CC1=CC=CC=C1N2\C(=N/C3=CC=CC=C3C2=O)C [Methaqualone] | > 46 µM
12 | COC/1=N/N(CS[P](=S)(OC)OC)C(=O)S1 [Methidathion] | > 46 µM
13 | Cn1ccnc1S [Methimazole] | > 46 µM
14 | COC(C)(C)CCCC(C)C/C=C/C(C)=C/C(=O)OC(C)C (configuration not stated) [Methoprene] | > 46 µM
15 | COc1ccc2c(c1)N(C[C@@H](C)CN(C)C)c1ccccc1S2 [Methotrimeprazine maleat salt] | > 46 µM
16 | COc1ccc(C(c2ccc(OC)cc2)C(Cl)(Cl)Cl)cc1 [Methoxychlor] | > 46 µM
17 | CNC(C)Cc1ccccc1OC (configuration not stated) [Methoxyphenamine] | > 46 µM
18 | C[N+]1(C)[C@@H]2CC[C@@H]1CC(OC(=O)[C@@H](CO)c1ccccc1)C2.O=[N+]([O-])[O-] (some centres not stated) [Methylatropine nitrate] | > 46 µM
19 | Cc1cc(C(C)(C)CC(C)(C)C)ccc1OCCOCC[N+](C)(C)Cc1ccccc1 [Methylbenzethonium chloride] | > 46 µM
20 | CNC(=O)OCC[N+](C)(C)C.[Cl-] [Methylcarbamylcholine chloride] | > 46 µM

Next, values leading:

Row | IC50 of cell viability | SMILES
21 | > 46 µM | CCCNC(C)(C)COC(=O)c1ccccc1 [Meprylcaine hydrochloride]
22 | > 46 µM | C[C@H](O)[C@H]1[C@@H]2[C@@H](C)\C(=C(/N2C1=O)C(O)=O)S[C@@H]3CN[C@H](C3)C(=O)N(C)C [Meropenem]
23 | > 46 µM | Nc1ccc(O)c(C(=O)O)c1 [Mesalamine]
24 | > 46 µM | CC(C)NC[C@H](O)c1cc(O)cc(O)c1 [Metaproterenol sulfate, orciprenaline sulfate]
25 | > 46 µM | O=C(NNCNNC(=O)c1ccncc1)c1ccncc1 [Metazida]
26 | > 46 µM | CN(C)C(=N)NC(=N)N [Metformin hydrochloride]
27 | > 46 µM | CC(=O)O[C@@H](C)C[N+](C)(C)C [Methacholine chloride]
28 | > 46 µM | CO [Methanol]
29 | > 46 µM | CC[N+](C)(CC)CCOC(=O)C1c2ccccc2Oc2ccccc21 [Methantheline bromide]
30 | > 46 µM | CC(=O)/N=c1/sc([S+](N)(=O)[O-])nn1C [Methazolamide]
31 | > 46 µM | COc1ccccc1OC[C@H](O)COC(N)=O [Methocarbamol]
32 | > 46 µM | COC1=C2OC(=O)\C=C/C2=CC3=C1OC=C3 [Methoxsalen]
33 | > 46 µM | CN1C(=O)CC(C)(c2ccccc2)C1=O (configuration not stated) [Methsuximide]
34 | > 46 µM | COC(C)=O [Methyl acetate]
35 | > 46 µM | COC(=O)c1ccccc1O [Methyl salicylate]
36 | > 46 µM | C[C@](N)(Cc1ccc(O)c(O)c1)C(=O)O [Methyldopa sesquihydrate]
37 | > 46 µM | COC(=O)c1ccc(O)cc1 [Methylparaben]
